{
  "source": "patent US6399598B1",
  "about": "“Diheterocyclic metalloprotease inhibitors” (The Procter & Gamble Company, priority 1996, dated 2002)",
  "format_in_all_cases": "in vivo",
  "key": {"premetastatic tumor": {"test_system": "premetastatic tumor", "test": "Injection beside a premetastatic tumor in a human subject (Example G)", "conditions": "100 mg/ml suspension, approx. 2.0 ml injected beside the tumor twice daily, after 30 days", "experimental": "A composition for parenteral administration is made comprising: The above ingredients are mixed, forming a suspension. Approximately 2.0 ml of the suspension is administered, via injection, to a human subject with a premetastatic tumor. The injection site juxtaposes the tumor. This dosage is repeated twice daily, for approximately 30 days."}, "osteoarthritis": {"test_system": "osteoarthritis", "test": "Treatment of an osteoarthritis patient with oral capsules (Example B)", "conditions": "human male, capsule with 70 mg daily for 5 years", "experimental": "A capsule for oral administration, according to the present invention, is made comprising:\nA human subject weighing 90 kg (198 lbs), suffering from osteoarthritis, is treated by a method of this invention. Specifically, for 5 years, a capsule containing 70 mg of Example 3 is administered daily to said subject."}, "chemical burns": {"test_system": "chemical burns", "test": "Topical composition in a patient with chemical burns (Example D)", "conditions": "0.20% w/v topical composition at each dressing change (b.i.d.)", "from_the_text": "An topical composition for local administration, according to the present invention, is made comprising:\nA patient suffering from chemical burns applies the composition at each dressing change (b.i.d.)."}, "rheumatoid arthritis": {"test_system": "rheumatoid arthritis", "test": "Treatment of a rheumatoid arthritis patient with oral tablets (Example A)", "conditions": "human female, three 15 mg tablets per day orally for 2 years", "experimental": "A tablet composition for oral administration, according to the present invention, is made comprising:\nA human subject weighing 60 kg (132 lbs), suffering from rheumatoid arthritis, is treated by a method of this invention. Specifically, for 2 years, a regimen of three tablets per day is administered orally to said subject."}},
  "data": [
    {"smiles": "COc1ccc(S(=O)(=O)N2CCN(C(C)C)C(=O)C[C@@H]2C(=O)NO)cc1", "note": "[Example 4, N-Hydroxy 1-(1-Methylethyl)-4-[(4-methoxyphenyl)sulfonylamino]-7-oxo-1,4-diazepine-5(R)-carboxamide]", "values": [
      {"measurement": "symptoms of the disease", "setting": "premetastatic tumor", "value": "symptoms of the disease subside"}
    ]},
    {"smiles": "COc1ccc(S(=O)(=O)N2CN(Cc3ccccc3)C(=O)C(C)(C)C2C(=O)NO)cc1", "note": "(racemic) [Example 3, N-Hydroxy 1-Benzyl-5,5-dimethyl-3-[(4-methoxyphenyl)sulfonyl]-6-oxo-hexahydro-pyrimidine-4(R,S)-carboxamide]", "values": [
      {"measurement": "erosion/fibrillation of the articular cartilage, examined via orthoscopy", "setting": "osteoarthritis", "value": "no further advancement of erosion/fibrillation of the articular cartilage"},
      {"measurement": "scarring", "setting": "chemical burns", "value": "Scarring is substantially diminished"}
    ]},
    {"smiles": "COc1ccc(S(=O)(=O)N2CCSCCC2C(=O)NO)cc1", "note": "(centres unmarked) [Example 9, N-Hydroxy-4-[(4-methoxyphenyl)sulfonyl]-thiazepine-5-carboxamide]", "values": [
      {"measurement": "inflammation at the end of the treatment period", "setting": "rheumatoid arthritis", "value": "reduced inflammation"},
      {"measurement": "mobility and pain at the end of the treatment period", "setting": "rheumatoid arthritis", "value": "improved mobility without concomitant pain"}
    ]}
  ]
}
